Earlier results on one compound are cited in patent US20080214592A1, “METHODS OF TREATING ANXIETY DISORDERS” (Orexigen Therapeutics, Inc., priority 2005, published 2008).

Turning to `CNCCC(Oc1ccc(C(F)(F)F)cc1)c1ccccc1` (stereo not shown) [Fluoxetine, fluoxetine], the physiological half life entry is given as “about 24 hours”.
